Source: patent publication US5438052A, “Cephalosporin derivatives” (Hoffmann-La Roche Inc., priority 1991, dated 1995)
In brackets after ≈: the same amount, converted by molar mass. Like-named read-outs stand apart in the source and are kept apart here.

Tests used:
[1] = tested on: E. coli 25922; test: Experimental systemic septicaemia in the mouse; format: in vivo; settings: 96 h
Description: (§1) 2. Experimental systemic septicaemia in the mouse
(§2) An experimental systemic septicaemia was produced in albino mice weighing 16-20 g by intraperitoneally injecting into the experimental animals a sample of a dilute culture of the test organism which had been grown overnight. The sample administered is calculated such that the dosage administered is about 5-100 times greater than the dosage which is required to kill 50% of untreated experimental animals within 48 hours. The bacteria were injected as a suspension in the culture broth. Groups of 5 experimental animals each were used not only for the control, but also for the treatment for each dosage tested. The products in accordance with the invention were administered subcutaneously as a suspension in Tween 80 (2%), whereby the concentrations were chosen such that each experimental animal received 500 μl per administration. The respective concentrations were administered twice, namely 1 and 3 hours after the infection (in the case of P. aeruginosa three times, namely 1, 3 and 5 hours after the infection). The ED50 is that dosage which protects 50% of the experimental animals and was calculated by means of the Probit method on the basis of the survial rate after 4 days following the infection. The ED50 values in mg/kg s.c. (subcutaneous) for representatives of the class of substance in accordance with the invention are given in Table 2 hereinafter.

[2] = tested on: Pseudomonas aeruginosa BA; test: Experimental systemic septicaemia in the mouse; format: in vivo; settings: sc, 96 h
Description: as §1, §2

[3] = tested on: C. freundii 902; test: Minimum inhibitory concentration in vitro, agar dilution method; format: cell-based; settings: Citrobacter freundii
Description: (§3) 1. Minimum Inhibitory Concentration in vitro
(§4) The activities ascertained, minimum inhibitory concentration (MIC) in μg/ml, are compiled in Table 1 hereinafter: […]

[4] = tested on: E. cloacae 908R; test: as above; format: cell-based; settings: Enterobacter cloacae
Description: as §3, §4

[5] = tested on: S. aureus 6538; test: as above; format: cell-based; settings: Staphylococcus aureus
Description: as §3, §4

[6] = tested on: P. aeruginosa MK1184; test: as above; format: cell-based; settings: Pseudomonas aeruginosa
Description: as §3, §4

[7] = tested on: E. coli 25922; test: as above; format: cell-based; settings: Escherichia coli
Description: as §3, §4

[8] = tested on: P. aeruginosa BA; test: as above; format: cell-based; settings: Pseudomonas aeruginosa
Description: as §3, §4

[9] = tested on: E. cloacae 908SSi; test: as above; format: cell-based; settings: Enterobacter cloacae
Description: as §3, §4

[10] = tested on: K. pneumoniae 418; test: as above; format: cell-based; settings: Klebsiella pneumoniae
Description: as §3, §4

[11] = tested on: P. aeruginosa 27853; test: as above; format: cell-based; settings: Pseudomonas aeruginosa
Description: as §3, §4

[12] = tested on: E. cloacae P99; test: as above; format: cell-based; settings: Enterobacter cloacae
Description: as §3, §4

[13] = tested on: S. marcescens 69438; test: as above; format: cell-based; settings: Serratia marcescens
Description: as §3, §4

[14] = tested on: P. aeruginosa 799/61; test: as above; format: cell-based; settings: Pseudomonas aeruginosa
Description: as §3, §4

[15] = tested on: K. oxytoca 1082; test: as above; format: cell-based; settings: Klebsiella oxytoca
Description: as §3, §4

[16] = tested on: P. mirabilis 2117; test: as above; format: cell-based; settings: Proteus mirabilis
Description: as §3, §4

[17] = tested on: P. vulgaris 1028; test: as above; format: cell-based; settings: Proteus vulgaris
Description: as §3, §4

[18] = tested on: P. aeruginosa 799/WT; test: as above; format: cell-based; settings: Pseudomonas aeruginosa
Description: as §3, §4

[19] = tested on: S. pyogenes 15; test: as above; format: cell-based; settings: Streptococcus pyogenes
Description: as §3, §4

[20] = tested on: S. pneumoniae BA; test: as above; format: cell-based; settings: Streptococcus pneumoniae; S. pneumoniae BA, agar dilution; read-out: MIC
Description: as §3, §4

[21] = Escherichia coli, sc, E. coli 25922, albino mice, s.c. 1 and 3 hours after infection, survival after 4 days, read-out: ED50
[22] = P. aeruginosa BA, albino mice, s.c. 1, 3 and 5 hours after infection, survival after 4 days, read-out: ED50
[23] = C. freundii 902, agar dilution, read-out: MIC
[24] = E. cloacae 908R, agar dilution, read-out: MIC
[25] = S. aureus 6538, agar dilution, read-out: MIC
[26] = P. aeruginosa MK1184, agar dilution, read-out: MIC
[27] = E. coli 25922, agar dilution, read-out: MIC
[28] = P. aeruginosa BA, agar dilution, read-out: MIC
[29] = E. cloacae 908SSi, agar dilution, read-out: MIC
[30] = K. pneumoniae 418, agar dilution, read-out: MIC
[31] = P. aeruginosa 27853, agar dilution, read-out: MIC
[32] = S. marcescens 69438, agar dilution, read-out: MIC
[33] = P. aeruginosa 799/61, agar dilution, read-out: MIC
[34] = K. oxytoca 1082, agar dilution, read-out: MIC
[35] = P. mirabilis 2117, agar dilution, read-out: MIC
[36] = P. vulgaris 1028, agar dilution, read-out: MIC
[37] = P. aeruginosa 799/WT, agar dilution, read-out: MIC
[38] = S. pyogenes 15, agar dilution, read-out: MIC

| SMILES | MIC [12] | ED50 [1, 21] | ED50 [2, 22] | MIC [3, 23] | MIC [4, 24] | MIC [5, 25] | MIC [6, 26] | MIC [7, 27] | MIC [8, 28] | MIC [9, 29] | MIC [20] | MIC [10, 30] | MIC [11, 31] | MIC [13, 32] | MIC [14, 33] | MIC [15, 34] | MIC [16, 35] | MIC [17, 36] | MIC [18, 37] | MIC [19, 38] | also measured |
| --- | --- | --- | --- | --- | --- | --- | --- | --- | --- | --- | --- | --- | --- | --- | --- | --- | --- | --- | --- | --- | --- |
| Cc1cc(SCC2=C(C(=O)[O-])N3C(=O)[C@@H](NC(=O)/C(=N\OCS(=O)(=O)c4ccc(O)c(O)c4)c4csc(N)n4)[C@H]3SC2)n2nc(CS(=O)(=O)c3ccc(O)c(O)c3)nc2n1.[Na+] [Example 10, (6R,7R)-7-[(Z)-2-(2-amino-4-thiazolyl)-2-[[[(3,4-dihydroxyphenyl)sulphonyl]methoxy]imino]acetamido]-3-[[[2-[[(3,4-dihydroxyphenyl)sulphonyl]methyl]-5-methyl-s-triazolo[1,5-a]pyrimidin-7-yl]thio]methyl]-8-oxo-5-thia-1-azabicyclo[4.2.0]oct-2-ene-2-carboxylic acid sodium salt (1:1)] | 16 µg/mL | – | – | – | – | – | – | – | – | – | – | – | – | – | – | – | – | – | – | – | ED50 ([1]; Escherichia coli, 25922, sc): < 0.1 mg/kg; ED50 [2]: 0.15 mg/kg; MIC [3]; 902: 0.12 µg/mL; MIC ([4]; 908R): 2 µg/mL; MIC [5]; 6538: 32 µg/mL; MIC ([6]; MK1184): < 0.1 µg/mL; MIC [7]; 25922: < 0.1 µg/mL; MIC [8]: < 0.1 µg/mL; MIC ([9]; 908SSI): 8 µg/mL; MIC [10]; 418: < 0.1 µg/mL; MIC [11]; 27853: < 0.1 µg/mL; MIC [13]; 69438: 0.12 µg/mL; MIC ([14]; 799/61): < 0.1 µg/mL; MIC [15]; 1082: 4 µg/mL; MIC [16]; 2117: < 0.1 µg/mL; MIC [17]; 1028: < 0.1 µg/mL; MIC ([18]; 799/WT): < 0.1 µg/mL; MIC [19]; 15: 4 µg/mL |
| CC(C)(O/N=C(\C(=O)N[C@@H]1C(=O)N2C(C(=O)O)=C(CS(=O)(=O)c3ccc(O)c(O)c3)CS[C@H]12)c1csc(N)n1)C(=O)NNC(=O)c1ccc(O)c(O)c1 [Example 47, (6R,7R)-7-[(Z)-2-(2-amino-4-thiazolyl)-2-[[1-[3-(3,4-dihydroxybenzoyl)carbazoyl]-1-methylethoxy]imino]acetamido]-3-[[(3,4-dihydroxyphenyl)sulphonyl]methyl]-8-oxo-5-thia-1-azabicyclo[4.2.0]oct-2-ene-2-carboxylic acid] | 16 µg/mL (≈ 20.2 µM) | < 0.1 mg/kg | 0.1 mg/kg | 0.5 µg/mL (≈ 0.631 µM) | 1 µg/mL (≈ 1.26 µM) | 32 µg/mL (≈ 40.4 µM) | > 32 µg/mL | 0.12 µg/mL (≈ 0.152 µM) | 4 µg/mL (≈ 5.05 µM) | 8 µg/mL (≈ 10.1 µM) | 1 µg/mL (≈ 1.26 µM) | < 0.1 µg/mL | 4 µg/mL (≈ 5.05 µM) | 0.25 µg/mL (≈ 0.316 µM) | 0.25 µg/mL (≈ 0.316 µM) | 0.25 µg/mL (≈ 0.316 µM) | 0.12 µg/mL (≈ 0.152 µM) | 0.25 µg/mL (≈ 0.316 µM) | 4 µg/mL (≈ 5.05 µM) | 1 µg/mL (≈ 1.26 µM) | – |
| CC(C)(O/N=C(\C(=O)N[C@@H]1C(=O)N2C(C(=O)O)=C(CSc3nnc(-c4ccc(O)c(O)c4)o3)CS[C@H]12)c1csc(N)n1)C(=O)NNC(=O)c1ccc(O)c(O)c1 [Example 45, (6R,7R)-7-[(Z)-2-(2-amino-4-thiazolyl)-2-[[1-[3-(3,4-dihydroxybenzoyl)carbazoyl]-1-methylethoxy]imino]acetamido]-3-[[[5-(3,4-dihydroxyphenyl)-1,3,4-oxadiazol-2-yl]thio]methyl]-8-oxo-5-thia-1-azabicyclo[4.2.0]oct-2-ene-2-carboxylic acid] | > 32 µg/mL | 0.13 mg/kg | 2.1 mg/kg | 0.06 µg/mL (≈ 0.0725 µM) | > 32 µg/mL | 16 µg/mL (≈ 19.3 µM) | 1 µg/mL (≈ 1.21 µM) | 0.06 µg/mL (≈ 0.0725 µM) | 0.06 µg/mL (≈ 0.0725 µM) | 2 µg/mL (≈ 2.42 µM) | 0.25 µg/mL (≈ 0.302 µM) | 0.06 µg/mL (≈ 0.0725 µM) | 0.12 µg/mL (≈ 0.145 µM) | 0.06 µg/mL (≈ 0.0725 µM) | 0.64 µg/mL (≈ 0.773 µM) | 0.06 µg/mL (≈ 0.0725 µM) | – | – | 0.06 µg/mL (≈ 0.0725 µM) | 1 µg/mL (≈ 1.21 µM) | – |
| Cc1cc(SCC2=C(C(=O)O)N3C(=O)[C@@H](NC(=O)/C(=N\OC(C)(C)C(=O)NO)c4csc(N)n4)[C@H]3SC2)n2nc(CNS(=O)(=O)c3ccc(O)c(O)c3)nc2n1 [Example 1, (6R,7R)-7-[(Z)-2-(2-amino-4-thiazolyl)-2-[[(1-hydroxycarbamoyl)-1-methylethoxy]imino]acetamido]-3-[[[2-[(3,4-dihydroxybenzenesulphonamido)methyl]-5-methyl-s-triazolo[1.5-a]pyrimidin-7-yl]thio]methyl]-8-oxo-5-thia-1-azabicyclo[4.2.0]oct-2-ene-2-carboxylic acid] | 32 µg/mL (≈ 37.7 µM) | – | – | 1 µg/mL (≈ 1.18 µM) | 16 µg/mL (≈ 18.8 µM) | 16 µg/mL (≈ 18.8 µM) | 4 µg/mL (≈ 4.71 µM) | 0.25 µg/mL (≈ 0.294 µM) | 0.5 µg/mL (≈ 0.588 µM) | 4 µg/mL (≈ 4.71 µM) | – | 0.12 µg/mL (≈ 0.141 µM) | 4 µg/mL (≈ 4.71 µM) | 0.25 µg/mL (≈ 0.294 µM) | 0.25 µg/mL (≈ 0.294 µM) | 0.5 µg/mL (≈ 0.588 µM) | 0.12 µg/mL (≈ 0.141 µM) | 0.5 µg/mL (≈ 0.588 µM) | 0.5 µg/mL (≈ 0.588 µM) | 4 µg/mL (≈ 4.71 µM) | – |
| Nc1nc(/C(=N/OCc2nc(=O)c(O)c[nH]2)C(=O)N[C@@H]2C(=O)N3C(C(=O)O)=C(CSc4cc(-c5ccc(O)c(O)c5)nc5ccnn45)CS[C@H]23)cs1 [Example 13, (6R,7R)-7-[(Z)-2-(2-amino-4-thiazolyl)-2-[[(1,4-dihydro-5-hydroxy-4-oxo-2-pyrimidinyl)methoxy]imino]acetamido]-3-[[[5-(3,4-dihydroxyphenyl)pyrazolo[1,5-a]pyrimidin-7-yl]thio]methyl]-8-oxo-5-thia-1-azabicyclo[4.2.0]oct-2-ene-2-carboxylic acid] | 8 µg/mL (≈ 10.5 µM) | – | 4 mg/kg | 0.25 µg/mL (≈ 0.327 µM) | 1 µg/mL (≈ 1.31 µM) | 16 µg/mL (≈ 20.9 µM) | 8 µg/mL (≈ 10.5 µM) | 0.06 µg/mL (≈ 0.0785 µM) | 2 µg/mL (≈ 2.62 µM) | 4 µg/mL (≈ 5.23 µM) | – | 0.06 µg/mL (≈ 0.0785 µM) | 4 µg/mL (≈ 5.23 µM) | 0.12 µg/mL (≈ 0.157 µM) | 0.06 µg/mL (≈ 0.0785 µM) | 0.06 µg/mL (≈ 0.0785 µM) | 0.06 µg/mL (≈ 0.0785 µM) | 0.06 µg/mL (≈ 0.0785 µM) | 1 µg/mL (≈ 1.31 µM) | 1 µg/mL (≈ 1.31 µM) | – |
| Nc1nc(/C(=N/OCc2ccc(O)c(O)c2)C(=O)N[C@@H]2C(=O)N3C(C(=O)O)=C(CS(=O)(=O)c4ccc(O)c(O)c4)CS[C@H]23)cs1 [Example 23, (6R,7R)-7-[(Z)-2-(2-amino-4-thiazolyl)-2-[[(3,4-dihydroxybenzyl)oxy]imino]acetamido]-3-[[(3,4-dihydroxyphenyl)sulphonyl]methyl]-8-oxo-5-thia-1-azabicyclo[4.2.0]oct-2-ene-2-carboxylic acid] | > 32 µg/mL | – | – | 4 µg/mL (≈ 5.9 µM) | > 32 µg/mL | 16 µg/mL (≈ 23.6 µM) | > 32 µg/mL | 0.25 µg/mL (≈ 0.369 µM) | 32 µg/mL (≈ 47.2 µM) | 16 µg/mL (≈ 23.6 µM) | 4 µg/mL (≈ 5.9 µM) | 0.12 µg/mL (≈ 0.177 µM) | 32 µg/mL (≈ 47.2 µM) | 2 µg/mL (≈ 2.95 µM) | 0.12 µg/mL (≈ 0.177 µM) | 16 µg/mL (≈ 23.6 µM) | 1 µg/mL (≈ 1.48 µM) | 2 µg/mL (≈ 2.95 µM) | 1 µg/mL (≈ 1.48 µM) | 4 µg/mL (≈ 5.9 µM) | – |
